# Values joined by “and” are separate entries in the source; they are usually repeats but may differ in a detail not shown here. Identical values can stand only once. Like-named read-outs stand apart in the source and are kept apart here.
# Assays:
# [1] = tested on: E. coli (D22, lpxC mutant, drug-hypersensitive); assay: microbe, parasite or virus in culture; type: cell-based; conditions: Escherichia coli, read-out: MIC Ec D22
# [2] = tested on: P. aeruginosa (PAO750 efflux-defective mutant, isogenic to PAO1); assay: microbe, parasite or virus in culture; type: cell-based; conditions: Pseudomonas aeruginosa, PAO1, read-out: MIC Pa efflux
# [3] = tested on: A. baumannii (ATCC 19606, wild-type); assay: MIC on ESKAPE pathogens, A. baumannii; type: cell-based; conditions: Acinetobacter baumannii
# [4] = tested on: P. aeruginosa (PAO1, wild-type); assay: MIC on ESKAPE pathogens, P. aeruginosa wild-type; type: cell-based; conditions: Pseudomonas aeruginosa, PAO1, P. aeruginosa PAO1, wild-type; read-out: MIC Pa WT
# [5] = tested on: E. coli (ATCC 25922, wild-type); assay: MIC on ESKAPE pathogens, E. coli wild-type; type: cell-based; conditions: Escherichia coli
# [6] = tested on: K. pneumonia (ATCC 13833, wild-type); assay: MIC on ESKAPE pathogens, K. pneumoniae
# [7] = target: MtNDH-2 (Mycobacterium tuberculosis, UniProt P95160); assay: biochemical; set-up: species or system M. tuberculosis; conditions: MtNDH-2 IC50
# Chain of MtNDH-2 (P95160 2-463, added parts left off): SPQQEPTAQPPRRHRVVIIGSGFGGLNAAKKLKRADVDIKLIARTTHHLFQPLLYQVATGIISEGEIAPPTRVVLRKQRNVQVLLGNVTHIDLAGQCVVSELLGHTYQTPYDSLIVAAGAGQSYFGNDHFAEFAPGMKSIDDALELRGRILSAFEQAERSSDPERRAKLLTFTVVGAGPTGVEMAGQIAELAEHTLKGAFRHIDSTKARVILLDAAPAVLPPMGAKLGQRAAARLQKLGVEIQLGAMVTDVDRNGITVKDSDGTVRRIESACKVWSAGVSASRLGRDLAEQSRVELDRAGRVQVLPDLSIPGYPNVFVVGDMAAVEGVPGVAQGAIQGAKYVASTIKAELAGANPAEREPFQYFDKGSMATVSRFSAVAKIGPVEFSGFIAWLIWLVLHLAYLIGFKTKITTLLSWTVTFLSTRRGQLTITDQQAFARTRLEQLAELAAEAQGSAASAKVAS
# [8] = tested on: E. coli (ΔtolC efflux-defective mutant, isogenic to ATCC 25922); assay: microbe, parasite or virus in culture; type: cell-based; conditions: Escherichia coli, ATCC25922, read-out: MIC Ec ΔtolC
# [9] = tested on: S. aureus (ATCC 29213, wild-type); assay: MIC on ESKAPE pathogens, S. aureus; type: cell-based; conditions: Staphylococcus aureus, ATCC29213
# [10] = tested on: M. tuberculosis strain H37Rv (ATCC 25618); assay: MIC on M. tuberculosis by resazurin reduction microplate assay (REMA); type: cell-based; conditions: Mycobacterium tuberculosis, M. tuberculosis H37Rv, read-out: MIC Mtb
# [11] = Cytotoxicity on the MRC-5 cell line (resazurin); type: cell-based; conditions: human, MRC-5SV2 cells, MRC-5SV2, 3 days
# Experimental: MRC-5SV2 cells were cultured in Earl’s MEM + 5% FCSi. Assays were performed in 96-well microtiter plates, each well containing about 10^4 cells/well. After 3 days of incubation with or without compounds, cell viability was assessed fluorimetrically after the addition of resazurin (λex 550 nm, λem 590 nm). The results were expressed as % reduction in cell growth/viability compared to untreated control wells and CC50 was determined. Testing/retesting strategy was as described above for HepG2 cells.
# [12] = target: MsNDH-2 (Mycolicibacterium smegmatis, UniProt A0QYD6); assay: Inhibition of MsNDH-2 (NADH oxidation with menadione, absorbance at 340 nm); type: biochemical, M. smegmatis
# Chain of MsNDH-2 (A0QYD6 1-457): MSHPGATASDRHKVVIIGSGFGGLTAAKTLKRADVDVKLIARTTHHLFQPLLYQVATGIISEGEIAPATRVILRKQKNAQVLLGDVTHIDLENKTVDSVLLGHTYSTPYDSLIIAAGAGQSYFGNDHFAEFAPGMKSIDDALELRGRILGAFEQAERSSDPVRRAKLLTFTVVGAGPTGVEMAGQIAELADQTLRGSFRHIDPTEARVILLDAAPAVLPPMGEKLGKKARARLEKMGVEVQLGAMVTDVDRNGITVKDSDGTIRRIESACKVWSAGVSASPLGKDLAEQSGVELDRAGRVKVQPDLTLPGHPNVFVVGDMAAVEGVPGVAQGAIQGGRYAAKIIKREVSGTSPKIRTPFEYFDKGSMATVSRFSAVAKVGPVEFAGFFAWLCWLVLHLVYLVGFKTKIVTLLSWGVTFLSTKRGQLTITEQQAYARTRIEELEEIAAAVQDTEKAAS
# [13] = tested on: E. coli MG1655 ΔtolC resistant mutants; assay: microbe, parasite or virus in culture; type: cell-based; conditions: for MIC: Escherichia coli
# [14] = ATCC19606, A. baumannii ATCC 19606, wild-type, read-out: MIC Ab WT
# [15] = ATCC25922, E. coli ATCC 25922, wild-type, read-out: MIC Ec WT
# [16] = 95% confidence interval in parentheses, 50 nM enzyme, 50 μM menadione, >100: no significant inhibition at 100 μM
# [17] = same IC50 given in μg/mL to assist comparisons with MICs
SMILES,MIC [1] [µg/mL],MIC [2] [µg/mL],"MIC [3, 14] [µg/mL]",MIC [4] [µg/mL],"MIC [5, 15] [µg/mL]",MIC Kp WT [6] [µg/mL],IC50 [7],MIC [8] [µg/mL],MIC [9] [µg/mL],MIC [10] [µg/mL],IC50 at 3 days ([11]; resazurin) [µM],IC50 at 3 days ([11]; value in parentheses) [µg/mL],"IC50 [12, 16] [µM]","IC50 [12, 17] [µM]",further results
"Nc1ccc2nc(-c3ccc(F)cc3)cc(N)c2c1 [Compound 6, 2-(4-Fluorophenyl)quinoline-4,6-diamine]",64,64,> 64,> 64,> 64,>64,1.2 µM and 1.18 µM,> 64,64,12.5,–,–,–,–,–
"Nc1nc(Cl)cc(Nc2ccc3nc(-c4ccc(F)cc4)cc(N)c3c2)n1 [Compound 7, N^6-(2-Amino-6-chloropyrimidin-4-yl)-2-(4-fluorophenyl)quinoline-4,6-diamine]",16,16,2,> 128,> 128,>128,–,64,4,4.7,1.1,0.4,3.1,3.15,–
"Nc1nc(Nc2ccc3nc(-c4ccc(F)cc4)cc(N)c3c2)cc(N2CCNCC2)n1 [Compound 8a, N^6-(2-Amino-6-(piperazin-1-yl)pyrimidin-4-yl)-2-(4-fluorophenyl)quinoline-4,6-diamine]",4,4,> 64,8,8,>64,3.1 µM and 3.02 µM,–,32,> 43,24,10,9.7,9.76,"MIC ([13]; MG1655, read-out: MIC mutant, mutant CH4954 raised against 8a, basS (pmrB) Glu121Lys waaY (rfaY) Asp160fs): 8 µg/mL; MIC ([13]; MG1655, read-out: MIC mutant, mutant CH4955 raised against 8a, basR (pmrA) Gly53Glu): 16 µg/mL; MIC ([13]; MG1655, read-out: MIC mutant, mutant CH4956 raised against 8a, basS (pmrB) Leu10Arg): 8 µg/mL; MIC ([13]; MG1655, read-out: MIC mutant, mutant CH4957 raised against 8a, asmA Asn295fs waaP (rfaP) Glu258 stop codon): 16 µg/mL; MIC ([13]; MG1655, read-out: MIC mutant, mutant CH5084 raised against 8a, basS (pmrB) Ala159Pro preB Ala13fs): 16 µg/mL; fold increase of MIC ([13]; mutant CH4954 vs parent E. coli MG1655 ΔtolC): 2; fold increase of MIC ([13]; mutant CH4955 vs parent E. coli MG1655 ΔtolC): 4; fold increase of MIC ([13]; mutant CH4956 vs parent E. coli MG1655 ΔtolC): 2; fold increase of MIC ([13]; mutant CH4957 vs parent E. coli MG1655 ΔtolC): 4; fold increase of MIC ([13]; mutant CH5084 vs parent E. coli MG1655 ΔtolC): 4"
"Nc1nc(Nc2ccc3nc(-c4ccc(F)cc4)cc(N)c3c2)cc(N2CCOCC2)n1 [Compound 8b, N^6-(2-Amino-6-morpholinopyrimidin-4-yl)-2-(4-fluorophenyl) quinoline-4,6-diamine]",16,32,16,≥ 64,64,64,–,16,32,–,–,–,> 100,> 99.7,–
"CN1CCN(c2cc(Nc3ccc4nc(-c5ccc(F)cc5)cc(N)c4c3)nc(N)n2)CC1 [Compound 8c, N^6-(2-Amino-6-(4-methylpiperazin-1-yl)pyrimidin-4-yl)-2-(4-fluorophenyl)quinoline-4,6-diamine]",16,16,> 128,64,128,>128,6.2 µM and 6.3 µM,16,128,15.6,–,–,40,40.5,–
"CC(C)N1CCN(c2cc(Nc3ccc4nc(-c5ccc(F)cc5)cc(N)c4c3)nc(N)n2)CC1 [Compound 8d, N^6-(2-Amino-6-(4-isopropylpiperazin-1-yl)pyrimidin-4-yl)-2-(4-fluorophenyl)quinoline-4,6-diamine]",32,32,> 128,64,64,128,3.6 µM,32,128,7.6,–,–,19,18.8,–
"Nc1nc(Nc2ccc3nc(-c4ccc(F)cc4)cc(N)c3c2)cc(N2CCN(CCO)CC2)n1 [Compound 8e, 2-(4-(2-Amino-6-((4-amino-2-(4-fluorophenyl)quinolin-6-yl)amino)pyrimidin-4-yl)piperazin-1-yl)ethan-1-ol]",32,> 128,–,64,–,128,6.6 µM and 6.53 µM,32,128,16,–,–,> 100,> 99,"MIC ([3]; ATCC19606, read-out: MIC Ab WT): > 128 µg/mL; MIC ([5]; ATCC25922, read-out: MIC Ec WT): > 128 µg/mL"
"CN(C)C1CCN(c2cc(Nc3ccc4nc(-c5ccc(F)cc5)cc(N)c4c3)nc(N)n2)CC1 [Compound 8f, N^6-(2-Amino-6-(4-(dimethylamino)piperidin-1-yl)pyrimidin-4-yl)-2-(4-fluorophenyl)quinoline-4,6-diamine]",32,–,> 128,32,> 128,>128,5.6 µM and 5.5 µM,32,> 128,10.9,–,–,> 100,> 99.5,–
"NCC1CCN(c2cc(Nc3ccc4nc(-c5ccc(F)cc5)cc(N)c4c3)nc(N)n2)CC1 [Compound 8h, N^6-(2-Amino-6-(4-(aminomethyl)piperidin-1-yl)pyrimidin-4-yl)-2-(4-fluorophenyl)quinoline-4,6-diamine]",8,8,> 128,4,64,>128,–,16,32,> 46,8,3.7,6.9,6.98,–
"Nc1nc(Nc2ccc3nc(-c4ccc(F)cc4)cc(N)c3c2)cc(N2CCCC(O)C2)n1 (stereo not drawn) [Compound 8o, 1-(2-Amino-6-((4-amino-2-(4-fluorophenyl)quinolin-6-yl)amino)pyrimidin-4-yl)piperidin-3-ol]",16,32,32,> 64,32,>64,3.4 µM and 3.37 µM,16,64,10.2,–,–,–,–,–
"Nc1nc(Nc2ccc3nc(-c4ccc(F)cc4)cc(N)c3c2)cc(N2CCC(O)CC2)n1 [Compound 8p, 1-(2-Amino-6-((4-amino-2-(4-fluorophenyl)quinolin-6-yl)amino)pyrimidin-4-yl)piperidin-4-ol]",32,> 64,64,> 64,64,>64,5.1 µM and 5.16 µM,32,64,16.5,–,–,–,–,–
"Nc1nc(Nc2ccc3nc(-c4ccc(F)cc4)ccc3c2)cc(N2CCNCC2)n1 [Compound 21, N^4-(2-(4-Fluorophenyl)quinolin-6-yl)-6-(piperazin-1-yl)pyrimidine-2,4-diamine]",16,4,32,> 64,16,64,–,8,8,22.3,8,3.3,32,31.3,–
"Fc1ccc(-c2ccc3cc(Nc4cc(N5CCNCC5)ncn4)ccc3n2)cc1 [Compound 23, 2-(4-Fluorophenyl)-N-(6-(piperazin-1-yl)pyrimidin-4-yl)quinolin-6-amine]",16,4,64,> 64,> 64,64,–,8,8,7.1,7.9,3.2,24,24,–

# Reference: paper PMC8922281, “Synthesis and In Vitro Biological Evaluation of Quinolinyl Pyrimidines Targeting Type II NADH-Dehydrogenase (NDH-2)” (ACS Infectious Diseases, 2022)
